Data: patent US5380715A, “Ap4 A as a hypotensive agent” (Fujirebio Inc., priority 1992, dated 1995)
“Also recorded” adds a separate entry of the source.

Columns and labels:
dogs = assay: Gradual hypotension during anesthesia in dogs (hemodynamics, blood gas); type: in vivo, mongrel dogs; conditions: dog
Protocol: Dogs were anesthetized with enflurane. […] The mean blood pressure (B.P.), heart rate (H.R.), cardiac output (C.O.), arterial oxygen tension (PaO2), mixed venos oxygen tension (PvO2), arterial carbonate tension (PaCO2), mixed venous carbonate tension (PvCO2), arterial pH (pH-a), mixed venous pH (pH-v), and base excess thereof were measured.
Mongrel dogs weighing 9 to 17 kg were anesthetized with intravenous thiopental 20 mg/kg by bolus injection, followed by 1% enflurane in 40% O2 /N2 after endotracheal intubation. […] Bilateral femoral arteries were catheterized, one for the determination of blood pressure and the other for blood sampling.
Access to the bilateral femoral veins was obtained for the administration of Ap4A, PG E1 or nitroglycerin and for the insertion of a ballon-tipped thermodilution catheter. The electrocardiogram was continuously monitored. The control values were obtained before the administration of each of the above-mentioned three agents. Each agent was administered using a syringe pump at titrated doses to produce gradual 20%, 40%, 50%, 60%, and 80% decreases in the mean arterial pressure (MAP) from the control value.
After the target blood pressure and stable hemodynamic conditions were reached, the following parameters were measured: heart rate (HR), mean pulmonary artery pressure (PAM), pulmonary capillary wedge pressure (PCWP), and central venous pressure (CVP). Cardiac output (CO) was determined by the thermodilution method. Gas analyses of arterial and mixed venous bloods were performed using a blood gas analyzer.

[1] = tested on: human platelet-aggregation; conditions: words; cited from earlier work
[2] = tested on: rabbit mesenteric arteries; conditions: words; cited from earlier work
[3] = enflurane, at -20% blood pressure
[4] = enflurane, at -40% blood pressure
[5] = enflurane, at -50% blood pressure
[6] = enflurane, at -60% blood pressure
[7] = enflurane, at -80% blood pressure

## Nc1ncnc2c1ncn2[C@@H]1O[C@H](COP(=O)(O)OP(=O)(O)OP(=O)(O)OP(=O)(O)OC[C@H]2O[C@@H](n3cnc4c(N)ncnc43)[C@H](O)[C@@H]2O)[C@@H](O)[C@H]1O [Ap4A, diadenosine 5',5'"-p^1,p^4 -tetraphosphate]
dogs; enflurane
  fall in blood pressure attainable: ~60%
dogs; [3]
  Arterial Carbonate Tension PaCO2: 36.0 ± 1.0 mmHg
  Arterial Oxygen Tension PaO2: 252.8 ± 7.2 mmHg
  Arterial pH (pH-a): 7.337 ± 0.013
  Body Temperature BT: 37.2 ± 0.6 °C
  Cardiac Output C.O.: 2.42 ± 0.25 L/min
  Central Venous Pressure CVP: 3.77 ± 0.25 mmHg
  Heart Rate H.R.: 160.1 ± 7.5 beats/min
  Hematocrit Value Hct: 40.6 ± 2.1%
  Mean Blood Pressure B.P. (mean): 104.3 ± 3.3
  Mean Blood Pressure B.P. (Δ%): -19.8 ± 0.4%
  Mixed Venous Carbonate Tension PvCO2: 39.3 ± 1.2 mmHg
  Mixed Venous Oxygen Tension PvO2: 61.6 ± 2.4 mmHg
  Mixed Venous pH (pH-v): 7.308 ± 0.008
  Pulmonary Artery Pressure PAM: 18.4 ± 1.5 mmHg
  Pulmonary Capillary Wedge Pressure PCWP: 8.3 ± 1.3 mmHg
dogs; enflurane, at -20% blood pressure (Table 1)
  Base Excess BE: -5.39 ± 0.77 mBq-1
dogs; [4]
  Arterial Carbonate Tension PaCO2: 35.3 ± 1.0 mmHg
  Arterial Oxygen Tension PaO2: 253.8 ± 7.6 mmHg
  Arterial pH (pH-a): 7.341 ± 0.018
  Body Temperature BT: 37.3 ± 0.6 °C
  Cardiac Output C.O.: 2.22 ± 0.15 L/min
  Central Venous Pressure CVP: 3.89 ± 0.29 mmHg
  Heart Rate H.R.: 154.9 ± 6.9 beats/min
  Hematocrit Value Hct: 40.6 ± 1.7%
  Mean Blood Pressure B.P. (mean): 78.2 ± 2.3
  Mean Blood Pressure B.P. (Δ%): -39.8 ± 0.4%
  Mixed Venous Carbonate Tension PvCO2: 36.6 ± 1.3 mmHg
  Mixed Venous Oxygen Tension PvO2: 63.3 ± 1.7 mmHg
  Mixed Venous pH (pH-v): 7.311 ± 0.009
  Pulmonary Artery Pressure PAM: 17.8 ± 1.6 mmHg
  Pulmonary Capillary Wedge Pressure PCWP: 8.0 ± 1.2 mmHg
dogs; enflurane, at -40% blood pressure (Table 1)
  Base Excess BE: -5.52 ± 0.89 mBq-1
dogs; [5]
  Arterial Carbonate Tension PaCO2: 35.0 ± 1.1 mmHg
  Arterial Oxygen Tension PaO2: 252.5 ± 7.5 mmHg
  Arterial pH (pH-a): 7.338 ± 0.011
  Body Temperature BT: 37.2 ± 0.6 °C
  Cardiac Output C.O.: 2.02 ± 0.16 L/min
  Central Venous Pressure CVP: 3.64 ± 0.35 mmHg
  Heart Rate H.R.: 144.0 ± 7.3 beats/min
  Hematocrit Value Hct: 40.7 ± 1.7%
  Mean Blood Pressure B.P. (mean): 65.4 ± 2.0
  Mean Blood Pressure B.P. (Δ%): -49.6 ± 0.4%
  Mixed Venous Carbonate Tension PvCO2: 36.7 ± 1.4 mmHg
  Mixed Venous Oxygen Tension PvO2: 60.5 ± 2.1 mmHg
  Mixed Venous pH (pH-v): 7.308 ± 0.011
  Pulmonary Artery Pressure PAM: 16.3 ± 1.4 mmHg
  Pulmonary Capillary Wedge Pressure PCWP: 7.6 ± 1.2 mmHg
dogs; enflurane, at -50% blood pressure (Table 1)
  Base Excess BE: -5.77 ± 0.66 mBq-1
dogs; [6]
  Arterial Carbonate Tension PaCO2: 34.6 ± 1.3 mmHg
  Arterial Oxygen Tension PaO2: 253.8 ± 7.7 mmHg
  Arterial pH (pH-a): 7.315 ± 0.010
  Body Temperature BT: 37.2 ± 0.6 °C
  Cardiac Output C.O.: 1.55 ± 0.20 L/min
  Central Venous Pressure CVP: 3.63 ± 0.44 mmHg
  Dose: 242.4 ± 32.8 µg/kg/min
  Heart Rate H.R.: 131.6 ± 7.5 beats/min
  Hematocrit Value Hct: 41.9 ± 2.2%
  Mean Blood Pressure B.P. (mean): 51.7 ± 1.7
  Mean Blood Pressure B.P. (Δ%): -60.3 ± 0.2%
  Mixed Venous Carbonate Tension PvCO2: 38.1 ± 1.8 mmHg
  Mixed Venous Oxygen Tension PvO2: 54.9 ± 1.8 mmHg
  Mixed Venous pH (pH-v): 7.292 ± 0.011
  Pulmonary Artery Pressure PAM: 14.3 ± 1.1 mmHg
  Pulmonary Capillary Wedge Pressure PCWP: 6.7 ± 10.9 mmHg
dogs; enflurane, at -60% blood pressure (Table 1)
  Base Excess BE: -7.30 ± 0.64 mBq-1
dogs; [7]
  Arterial Carbonate Tension PaCO2: 37.5 ± 1.1 mmHg
  Arterial Oxygen Tension PaO2: 245.6 ± 9.2 mmHg
  Arterial pH (pH-a): 7.260 ± 0.010
  Body Temperature BT: 37.4 ± 0.6 °C
  Cardiac Output C.O.: 1.16 ± 0.11 L/min
  Central Venous Pressure CVP: 3.51 ± 0.60 mmHg
  Dose: 3895.2 ± 675.7 µg/kg/min
  Heart Rate H.R.: 98.6 ± 4.7 beats/min
  Hematocrit Value Hct: 42.8 ± 2.2%
  Mean Blood Pressure B.P. (mean): 28.8 ± 1.0
  Mean Blood Pressure B.P. (Δ%): -77.8 ± 0.8%
  Mixed Venous Carbonate Tension PvCO2: 44.4 ± 1.4 mmHg
  Mixed Venous Oxygen Tension PvO2: 53.3 ± 2.8 mmHg
  Mixed Venous pH (pH-v): 7.228 ± 0.014
  Pulmonary Artery Pressure PAM: 14.3 ± 1.2 mmHg
  Pulmonary Capillary Wedge Pressure PCWP: 7.4 ± 1.0 mmHg
dogs; enflurane, at -80% blood pressure (Table 1)
  Base Excess BE: -9.36 ± 0.79 mBq-1
dogs; result in words
  effect on arterial pH / venous pH: does not decrease arterial pH and venous pH up to a less than 60% fall in blood pressure; also recorded: does not substantially decrease arterial pH in practical use
  effect on base excess: does not make any significant changes in base excess
  effect on carbonate tension: tendency to decrease arterial carbonate tension (PaCO2), and mixed venous carbonate tension (PvCO2); also recorded: tendency to decrease arterial carbonate tension (PaCO2), mixed venous carbonate tension (PvCO2), or actually decreases PaCO2 and PvCO2
  effect on cardiac output: cardiac output is significantly increased at a 20% fall in blood pressure; also recorded: tendency to significantly increase the cardiac output when a 20% fall in blood pressure is attained, and the cardiac output is continuously increased until a 60% fall in blood pressure is attained
  effect on heart rate: when a 60% or more fall in blood pressure is attained, Ap4A is seem to have significant adverse effects on the heart rate; also recorded: significant effect on heart rate is that required for a 60% or more fall in blood pressure
  effect on oxygen tension: tendency to increase arterial oxygen tension (PaO2), and mixed venous oxygen tension (PvO2); also recorded: tendency to increase arterial oxygen tension (PaO2), and mixed venous oxygen tension (PvCO2), or actually increases PaO2 and PvO2
  hypotensive effect compared with PG E1 / nitroglycerin: the same hypotensive effect as that of PG E1; also recorded: comparable with that of PG E1 and is better than that of nitroglycerin
[1]
  ADP-induced human platelet-aggregation inhibitory effect: ADP-induced human platelet-aggregation inhibitory effect
[2]
  vasodilating effect: a vasodilating effect of rabbit mesenteric arteries
